Entries after “also recorded” stand apart in the source; their conditions may differ.
Assays:
[1] = mice; i.t., i.c.v., intraplantar or intravenous; cited from earlier work
ASICs [2] = settings: in vitro; cited from earlier work
[3] = Body composition by NMR in LepR^PB obese mice; assay type: in vivo, LepR^PB female mice; settings: before and after 5-week administration
DEG/ENaC ion channels = assay: Short-term food intake in normal mice; assay type: in vivo, C57BL6 mice; settings: 15 minutes before feeding
Method: 13 weeks old C57BL6 Female and male mice were singly housed for 2 weeks before the experiment. Mice were starved Sam-6 μm. […] The administrated volume was 10 ml/kg body weight. 15 minutes later, normal chow solid food was provided to the mice and the food consumption at designated time points were measured. P-values were calculated using t-test (unpaired, 2 tails) for data points. *=p<0.05, **=p<0.01, ***=p<0.001
15 weeks old C57BL6 female mice were singly housed for 2 weeks before the experiment. Mice were starved Sam-6 μm. Then Benzamil (Benzamil hydrochloride hydrate) was administrated by intraperitoneal injection, 0.01-10 μmole/kg body weight (3.5621 μg 3.5621 mg/kg b.w.), or saline. The administrated volume was 10 ml/kg body weight. 15 minutes later, normal chow solid food was provided to the mice and the food consumption at designated time points were measured.

[4] = Weight change in LepR^PB obese mice; assay type: in vivo, LepR^PB female mice; settings: oral gavage 6 times a week for 5 weeks, 4.1 mg/kg/day Day 1-14, 12.3 mg/kg/day Day 15-35; by day 35
Method: 8 weeks old LepR^PB female mice were used in the experiment. LepR^PB mouse is a model of obesity, which carries a mutation in the gene for the leptin receptor. 20 mice were randomly divided into two groups. […] Amiloride was dissolved in DMSO and diluted in sterile water. […] The injection volume was 10 ml/kg. The mice in control group received 82 μl DMSO/kg/day in sterile water. Body weight was measured. The weight changes compared to the body weight on Day 14 were analyzed.

ASICs [5] = settings: cited from earlier work
ASIC = settings: cited from earlier work
ENaC = target: T1, ENaC (Homo sapiens, UniProt P37088+P51168+P51170); settings: in vitro and in vivo; cited from earlier work
T1 sequence (P37088 1-669): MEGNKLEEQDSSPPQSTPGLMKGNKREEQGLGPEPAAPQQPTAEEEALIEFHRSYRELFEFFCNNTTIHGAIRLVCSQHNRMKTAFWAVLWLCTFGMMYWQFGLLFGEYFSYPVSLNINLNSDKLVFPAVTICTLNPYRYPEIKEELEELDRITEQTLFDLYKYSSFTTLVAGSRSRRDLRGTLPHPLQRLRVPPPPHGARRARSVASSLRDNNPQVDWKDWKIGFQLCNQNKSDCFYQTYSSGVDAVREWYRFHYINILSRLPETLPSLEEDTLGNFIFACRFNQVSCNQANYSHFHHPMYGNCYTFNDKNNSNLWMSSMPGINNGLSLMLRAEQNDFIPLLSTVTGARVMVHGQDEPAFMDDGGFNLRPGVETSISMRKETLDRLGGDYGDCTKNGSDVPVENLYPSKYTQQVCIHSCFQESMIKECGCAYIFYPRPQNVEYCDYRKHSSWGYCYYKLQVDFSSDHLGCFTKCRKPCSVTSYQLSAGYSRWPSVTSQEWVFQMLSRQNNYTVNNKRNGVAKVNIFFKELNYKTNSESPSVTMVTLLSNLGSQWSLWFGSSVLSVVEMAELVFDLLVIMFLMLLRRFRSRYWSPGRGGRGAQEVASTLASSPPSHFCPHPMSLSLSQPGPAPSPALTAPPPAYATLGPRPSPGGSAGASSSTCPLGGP
T1 sequence (P51168 1-640): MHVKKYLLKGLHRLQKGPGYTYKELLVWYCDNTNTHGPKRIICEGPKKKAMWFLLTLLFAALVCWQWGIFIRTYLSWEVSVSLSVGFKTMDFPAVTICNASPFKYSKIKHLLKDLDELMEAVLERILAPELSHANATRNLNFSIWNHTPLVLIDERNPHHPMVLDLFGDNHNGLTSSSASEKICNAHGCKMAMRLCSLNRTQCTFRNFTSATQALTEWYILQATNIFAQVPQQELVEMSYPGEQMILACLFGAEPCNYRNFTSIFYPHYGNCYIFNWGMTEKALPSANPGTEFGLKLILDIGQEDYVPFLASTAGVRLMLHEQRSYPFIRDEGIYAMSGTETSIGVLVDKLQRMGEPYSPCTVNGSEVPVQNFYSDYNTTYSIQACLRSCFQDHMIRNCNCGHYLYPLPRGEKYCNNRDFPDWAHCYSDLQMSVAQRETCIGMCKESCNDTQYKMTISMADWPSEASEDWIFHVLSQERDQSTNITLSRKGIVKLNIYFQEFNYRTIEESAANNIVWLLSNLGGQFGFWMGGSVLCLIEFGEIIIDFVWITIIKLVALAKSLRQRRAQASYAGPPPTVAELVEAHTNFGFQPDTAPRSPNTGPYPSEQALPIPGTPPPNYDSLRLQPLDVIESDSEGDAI
T1 sequence (P51170 1-649): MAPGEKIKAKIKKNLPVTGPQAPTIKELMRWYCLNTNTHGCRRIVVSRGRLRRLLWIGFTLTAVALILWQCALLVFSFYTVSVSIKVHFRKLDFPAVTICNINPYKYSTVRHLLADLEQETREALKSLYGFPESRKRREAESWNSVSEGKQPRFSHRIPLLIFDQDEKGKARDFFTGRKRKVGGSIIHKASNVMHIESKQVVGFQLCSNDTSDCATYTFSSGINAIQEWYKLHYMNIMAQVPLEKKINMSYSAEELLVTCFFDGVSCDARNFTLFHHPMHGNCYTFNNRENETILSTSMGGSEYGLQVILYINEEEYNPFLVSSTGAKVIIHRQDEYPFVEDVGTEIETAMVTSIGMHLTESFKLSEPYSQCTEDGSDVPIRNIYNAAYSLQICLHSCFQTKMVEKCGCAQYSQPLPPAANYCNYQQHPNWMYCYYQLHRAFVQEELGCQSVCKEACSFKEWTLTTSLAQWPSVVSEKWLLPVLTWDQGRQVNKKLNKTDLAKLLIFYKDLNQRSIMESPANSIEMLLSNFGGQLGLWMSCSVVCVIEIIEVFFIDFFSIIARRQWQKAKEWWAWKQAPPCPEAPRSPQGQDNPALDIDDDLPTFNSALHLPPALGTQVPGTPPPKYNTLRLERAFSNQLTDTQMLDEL

[6] = guinea pig TPD model; cited from earlier work
ASICs [7] = settings: Rat DRG neurons, in vitro; cited from earlier work
homomeric ASIC1a = target: T2, homomeric ASIC1a (Homo sapiens, UniProt P78348); settings: cited from earlier work
T2 sequence (P78348 1-528): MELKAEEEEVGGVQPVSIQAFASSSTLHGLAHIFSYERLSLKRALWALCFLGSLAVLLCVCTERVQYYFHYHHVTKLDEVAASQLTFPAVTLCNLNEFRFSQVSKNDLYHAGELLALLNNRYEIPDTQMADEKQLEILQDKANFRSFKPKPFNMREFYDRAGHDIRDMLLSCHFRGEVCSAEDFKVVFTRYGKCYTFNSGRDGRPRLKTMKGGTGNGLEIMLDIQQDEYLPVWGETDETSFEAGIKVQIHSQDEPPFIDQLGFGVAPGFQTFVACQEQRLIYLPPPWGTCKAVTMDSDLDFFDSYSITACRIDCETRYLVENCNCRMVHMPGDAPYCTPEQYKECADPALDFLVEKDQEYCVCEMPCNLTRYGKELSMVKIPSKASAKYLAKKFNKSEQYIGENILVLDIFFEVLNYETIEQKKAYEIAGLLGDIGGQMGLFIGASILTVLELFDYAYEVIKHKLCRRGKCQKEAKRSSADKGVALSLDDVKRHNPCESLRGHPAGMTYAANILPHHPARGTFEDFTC

heteromeric ASIC1a/2b = target: T3, heteromeric ASIC1a/2b (Homo sapiens, UniProt P78348+Q16515); settings: cited from earlier work
T3 sequence (P78348 1-528): T2 sequence (P78348 1-528)
T3 sequence (Q16515 1-563 isoform Q16515-2): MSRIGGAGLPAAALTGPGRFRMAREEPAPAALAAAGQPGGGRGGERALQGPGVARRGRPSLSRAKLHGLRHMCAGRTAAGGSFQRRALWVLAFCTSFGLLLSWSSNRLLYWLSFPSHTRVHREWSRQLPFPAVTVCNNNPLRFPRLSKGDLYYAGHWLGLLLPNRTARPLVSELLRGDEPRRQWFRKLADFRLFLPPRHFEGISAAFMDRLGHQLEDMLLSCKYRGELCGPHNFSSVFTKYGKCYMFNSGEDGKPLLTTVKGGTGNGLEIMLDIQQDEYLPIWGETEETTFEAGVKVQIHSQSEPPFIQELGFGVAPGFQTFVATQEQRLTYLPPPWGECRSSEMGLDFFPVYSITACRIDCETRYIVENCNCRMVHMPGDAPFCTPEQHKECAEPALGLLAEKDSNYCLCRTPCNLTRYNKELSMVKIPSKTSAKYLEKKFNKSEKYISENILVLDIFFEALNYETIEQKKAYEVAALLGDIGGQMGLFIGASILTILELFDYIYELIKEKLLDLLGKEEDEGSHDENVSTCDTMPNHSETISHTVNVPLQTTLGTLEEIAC

Compound: APETx2
- excitotoxicity, spasms, convulsions, motor paralysis, ataxia upon in vivo injections [1]: never produce excitotoxicity, spasms, convulsions, motor paralysis, nor ataxia

Compound: N=C(N)c1ccc(OCCCCCOc2ccc(C(=N)N)cc2)cc1 [pentamidine]
- ASICs blockage activity (ASICs [2]): potent ASICs blockage activity

Compound: NC(N)=NC(=O)c1nc(Cl)c(N)nc1N [Amiloride, 3,5-diamino-6-chloro-N-(diaminomethylidene)pyrazine-2-carboxamide]
- reduction in body fat percentage vs DMSO [3]: significantly more reduction
- reduction in body fluid percentage vs DMSO [3]: not significantly different; also recorded: no significant difference
- short-term food intake (DEG/ENaC ion channels; intraperitoneal, 1, 10 or 100 μmole/kg, male C57BL6 mice): suppressed short-term food intake
- short-term food intake (DEG/ENaC ion channels; oral gavage, 1, 10 or 100 μmole/kg, female C57BL6 mice): suppressed short-term food intake
- body weight change compared to Day 14, vs DMSO [4]: significant reductions in body weight; also recorded: clear reduction in weight
- IC50 (ASICs [5]): 10 to 100 µM

Compound: N=C(N)c1ccc(/N=N/Nc2ccc(C(=N)N)cc2)cc1 [diminazene]
- ASICs blockage activity (ASICs [2]): potent ASICs blockage activity

Compound: CC(C)C1c2cc(/C=C/c3ccc4cc(C(=N)N)ccc4c3)ccc2CCN1C (stereo not drawn) [10a]
- potency relative to A-317567 (ASIC): about 3 fold

Compound: N=C(N)c1ccc(-c2cc3ccc(C(=N)N)cc3[nH]2)cc1 [DAPI, 4′,6-diamidino-2-phenylindole]
- ASICs blockage activity (ASICs [2]): potent ASICs blockage activity

Compound: N=C(NC(=O)c1nc(Cl)c(N)nc1N)NC1CCN(C(=O)c2ccc(C(=O)N3CCC(NC(=N)NC(=O)c4nc(Cl)c(N)nc4N)CC3)cc2)CC1 [NVP-QBE170]
- blockage of ENaC (ENaC): potent and selective blockage of ENaC
- safety window over existing ENaC blockers, in terms of hyperkalaemia [6]: significantly enhanced safety window

Compound: CC(C)C1c2cc(C#Cc3ccc4cc(C(=N)N)ccc4c3)ccc2CCN1C (stereo not drawn) [10b]
- potency relative to A-317567 (ASIC): about 3 fold

Compound: CC(C)C1c2cc(C3CC3c3ccc4cc(C(=N)N)ccc4c3)ccc2CCN1C (stereo not drawn) [A-317567]
- potency relative to Amiloride on ASICs currents (ASICs [7]): 1.8-15 fold

Compound: PcTx1
- excitotoxicity, spasms, convulsions, motor paralysis, ataxia upon in vivo injections [1]: never produce excitotoxicity, spasms, convulsions, motor paralysis, nor ataxia
- inhibition of homomeric ASIC1a (homomeric ASIC1a): nanomolar potency
- inhibition of heteromeric ASIC1a/2b (heteromeric ASIC1a/2b): nanomolar potency

Reference: US20190167675A1, “METHODS AND COMPOSITIONS FOR APPETITE CONTROL AND WEIGHT MANAGEMENT” (SHANGHAI YAO YUAN BIOTECHNOLOGY CO., LTD., priority 2016, published 2019)
